Results taken from PMC9067983, “Identification of highly selective type II kinase inhibitors with chiral peptidomimetic tails” (Journal of Enzyme Inhibition and Medicinal Chemistry, 2022).
Where a SMILES comes first, the peptide text is derived from it. [ ]: non-standard residue; d: D form. The star is where a group is joined. X1 = Cc1ccc(Nc2ncc3c(n2)N(C)C(=O)N(c2cc(C(=O)*)ccc2C)C3)cn1; Chg = N[C@H](C(=O)O)C1CCCCC1; Pip = O=C(O)[C@@H]1CCCCN1; Ac3c = NC1(C(=O)O)CC1; Aib = CC(C)(N)C(=O)O

Key:
Lck = biological target: T1, Lck (Homo sapiens, UniProt P06239); assay: In vitro kinase assay (IC50); type: biochemical
T1 construct: purchased Reaction Biology Corp
T1 sequence (P06239 whole entry): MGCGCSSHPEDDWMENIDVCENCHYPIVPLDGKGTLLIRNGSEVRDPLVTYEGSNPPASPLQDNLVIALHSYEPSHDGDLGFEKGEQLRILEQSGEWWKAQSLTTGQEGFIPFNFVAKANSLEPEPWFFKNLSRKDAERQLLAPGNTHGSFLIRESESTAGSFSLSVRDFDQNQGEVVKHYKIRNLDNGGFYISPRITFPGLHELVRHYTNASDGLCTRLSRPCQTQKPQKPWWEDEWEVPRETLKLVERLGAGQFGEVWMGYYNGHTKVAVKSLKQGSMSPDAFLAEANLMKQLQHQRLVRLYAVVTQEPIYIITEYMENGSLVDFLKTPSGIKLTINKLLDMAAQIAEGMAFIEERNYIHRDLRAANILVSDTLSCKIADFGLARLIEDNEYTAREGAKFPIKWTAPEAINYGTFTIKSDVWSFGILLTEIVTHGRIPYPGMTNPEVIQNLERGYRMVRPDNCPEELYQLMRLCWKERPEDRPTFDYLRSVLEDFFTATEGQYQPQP
Procedure: (§1) Full panel kinase profiling and kinase IC50 measurement were performed by using Reaction Biology Corp. (San Diego, USA).

c-Src = biological target: T2, c-Src (Homo sapiens, UniProt P12931); assay: In vitro kinase assay (IC50); type: biochemical
T2 construct: purchased Reaction Biology Corp
T2 sequence (P12931 whole entry): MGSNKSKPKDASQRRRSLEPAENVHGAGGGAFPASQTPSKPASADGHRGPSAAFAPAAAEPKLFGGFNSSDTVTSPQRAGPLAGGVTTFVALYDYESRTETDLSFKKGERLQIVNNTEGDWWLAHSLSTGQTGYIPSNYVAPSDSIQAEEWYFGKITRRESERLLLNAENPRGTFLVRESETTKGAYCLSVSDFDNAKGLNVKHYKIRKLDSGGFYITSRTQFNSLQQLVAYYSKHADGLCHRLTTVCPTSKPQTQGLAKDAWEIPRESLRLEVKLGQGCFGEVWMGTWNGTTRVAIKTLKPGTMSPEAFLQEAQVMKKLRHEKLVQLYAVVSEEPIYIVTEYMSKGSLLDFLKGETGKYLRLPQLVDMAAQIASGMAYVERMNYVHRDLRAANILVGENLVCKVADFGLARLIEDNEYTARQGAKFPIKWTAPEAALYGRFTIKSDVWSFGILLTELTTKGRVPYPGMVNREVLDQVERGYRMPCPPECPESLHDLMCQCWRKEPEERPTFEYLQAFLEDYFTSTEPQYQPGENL
Procedure: as §1

| IC50 (Lck) | IC50 (c-Src) | selectivity for Lck over c-Src (Lck) | Structure (SMILES) |
| --- | --- | --- | --- |
| 64.4 nM | 1740 nM |  | Cc1ccc(Nc2ncc3c(n2)N(C)C(=O)N(c2cc(C(=O)N[C@H](C(=O)N4CCC[C@@H]4C(=O)NCC(=O)N[C@@H](CC(C)C)C(=O)N(C)C)C(C)C)ccc2C)C3)cn1 [7h, (R)-N-(2-(((S)-1-(dimethylamino)-4-methyl-1-oxopentan-2-yl)amino)-2-oxoethyl)-1-((4-methyl-3-(1-methyl-7-((6-methylpyridin-3-yl)amino)-2-oxo-1,4-dihydropyrimido[4,5-d]pyrimidin-3(2H)-yl)benzoyl)-L-valyl)pyrrolidine-2-carboxamide] (X1-V[dP]GL-NMe2) |
| 17.9 nM | 24.8 nM |  | C=CCCC1=N[C@@H](CC(=O)Nc2ccc(C)c(N3Cc4cnc(Nc5ccc(C)nc5)nc4N(C)C3=O)c2)C(=O)N(Cc2ccccc2)c2ccccc21 [11q, (S)-2-(1-benzyl-5-(but-3-en-1-yl)-2-oxo-2,3-dihydro-1H-benzo[e][1,4]diazepin-3-yl)-N-(4-methyl-3-(1-methyl-7-((6-methylpyridin-3-yl)amino)-2-oxo-1,4-dihydropyrimido[4,5-d]pyrimidin-3(2H)-yl)phenyl)acetamide] |
| 61.5 nM | 123 nM |  | Cc1ccc(Nc2ncc3c(n2)N(C)C(=O)N(c2cc(C(=O)N[C@H](C(=O)N4CCC[C@H]4C(=O)N[C@@H](Cc4ccccc4)C(=O)N[C@@H](CC(C)C)C(=O)N(C)C)C(C)C)ccc2C)C3)cn1 [7i, (S)-N-((S)-1-(((S)-1-(dimethylamino)-4-methyl-1-oxopentan-2-yl)amino)-1-oxo-3-phenylpropan-2-yl)-1-((4-methyl-3-(1-methyl-7-((6-methylpyridin-3-yl)amino)-2-oxo-1,4-dihydropyrimido[4,5-d]pyrimidin-3(2H)-yl)benzoyl)-L-valyl)pyrrolidine-2-carboxamide] (X1-VPFL-NMe2) |
| 403 nM | 5630 nM |  | Cc1ccc(Nc2ncc3c(n2)N(C)C(=O)N(c2cc(C(=O)N[C@H](C(=O)N4CCC[C@@H]4C(=O)N[C@H](C(=O)N[C@H](C)c4ccccc4)C(C)C)C(C)C)ccc2C)C3)cn1 [7v, (R)-N-((S)-3-methyl-1-oxo-1-(((R)-1-phenylethyl)amino)butan-2-yl)-1-((4-methyl-3-(1-methyl-7-((6-methylpyridin-3-yl)amino)-2-oxo-1,4-dihydropyrimido[4,5-d]pyrimidin-3(2H)-yl)benzoyl)-L-valyl)pyrrolidine-2-carboxamide] |
| 727 nM | 3140 nM |  | Cc1ccc(Nc2ncc3c(n2)N(C)C(=O)N(c2cc(C(=O)N[C@H](C(=O)N4CCC[C@H]4C(=O)NC(C)(C)C(=O)N[C@H](C(=O)N(C)C)C(C)C)C(C)C)ccc2C)C3)cn1 [7n, (S)-N-(1-(((S)-1-(dimethylamino)-3-methyl-1-oxobutan-2-yl)amino)-2-methyl-1-oxopropan-2-yl)-1-((4-methyl-3-(1-methyl-7-((6-methylpyridin-3-yl)amino)-2-oxo-1,4-dihydropyrimido[4,5-d]pyrimidin-3(2H)-yl)benzoyl)-L-valyl)pyrrolidine-2-carboxamide] (X1-VP[Aib]V-NMe2) |
| 18 nM | 586 nM |  | Cc1ccc(Nc2ncc3c(n2)N(C)C(=O)N(c2cc(C(=O)N[C@H](C(=O)N4CCCC[C@H]4C(=O)NC(C)(C)C(=O)N[C@@H](CC(C)C)C(=O)N(C)C)C(C)C)ccc2C)C3)cn1 [7j, (S)-N-(1-(((S)-1-(dimethylamino)-4-methyl-1-oxopentan-2-yl)amino)-2-methyl-1-oxopropan-2-yl)-1-((4-methyl-3-(1-methyl-7-((6-methylpyridin-3-yl)amino)-2-oxo-1,4-dihydropyrimido[4,5-d]pyrimidin-3(2H)-yl)benzoyl)-L-valyl)piperidine-2-carboxamide] (X1-V[Pip][Aib]L-NMe2) |
| 55.6 nM | 329 nM |  | CC[C@H](C)[C@H](NC(=O)c1ccc(C)c(N2Cc3cnc(Nc4ccc(C)nc4)nc3N(C)C2=O)c1)C(=O)N1CCC[C@H]1C(=O)NC(C)(C)C(=O)N[C@@H](CC(C)C)C(=O)N(C)C [7p, (S)-N-(1-(((S)-1-(dimethylamino)-4-methyl-1-oxopentan-2-yl)amino)-2-methyl-1-oxopropan-2-yl)-1-((4-methyl-3-(1-methyl-7-((6-methylpyridin-3-yl)amino)-2-oxo-1,4-dihydropyrimido[4,5-d]pyrimidin-3(2H)-yl)benzoyl)-L-isoleucyl)pyrrolidine-2-carboxamide] (X1-IP[Aib]L-NMe2) |
| 49 nM | 555 nM |  | Cc1ccc(Nc2ncc3c(n2)N(C)C(=O)N(c2cc(C(=O)N[C@H](C(=O)N4CCC[C@H]4C(=O)NC4(C(=O)N[C@@H](CC(C)C)C(=O)N(C)C)CC4)C(C)C)ccc2C)C3)cn1 [7d, (S)-N-(1-(((S)-1-(dimethylamino)-4-methyl-1-oxopentan-2-yl)carbamoyl)cyclopropyl)-1-((4-methyl-3-(1-methyl-7-((6-methylpyridin-3-yl)amino)-2-oxo-1,4-dihydropyrimido[4,5-d]pyrimidin-3(2H)-yl)benzoyl)-L-valyl)pyrrolidine-2-carboxamide] (X1-VP[Ac3c]L-NMe2) |
| 216 nM | 577 nM |  | Cc1ccc(Nc2ncc3c(n2)N(C)C(=O)N(c2cc(C(=O)NCC(=O)N4CCC[C@H]4C(=O)NC(C)(C)C(=O)N[C@@H](CC(C)C)C(=O)N(C)C)ccc2C)C3)cn1 [7r, (S)-N-(1-(((S)-1-(dimethylamino)-4-methyl-1-oxopentan-2-yl)amino)-2-methyl-1-oxopropan-2-yl)-1-((4-methyl-3-(1-methyl-7-((6-methylpyridin-3-yl)amino)-2-oxo-1,4-dihydropyrimido[4,5-d]pyrimidin-3(2H)-yl)benzoyl)glycyl)pyrrolidine-2-carboxamide] (X1-GP[Aib]L-NMe2) |
| 40.2 nM | 1370 nM |  | Cc1ccc(Nc2ncc3c(n2)N(C)C(=O)N(c2cc(C(=O)N[C@H](C(=O)N4CCC[C@H]4C(=O)NCC(=O)N[C@@H](CC(C)C)C(=O)N(C)C)C(C)C)ccc2C)C3)cn1 [7g, (S)-N-(2-(((S)-1-(dimethylamino)-4-methyl-1-oxopentan-2-yl)amino)-2-oxoethyl)-1-((4-methyl-3-(1-methyl-7-((6-methylpyridin-3-yl)amino)-2-oxo-1,4-dihydropyrimido[4,5-d]pyrimidin-3(2H)-yl)benzoyl)-L-valyl)pyrrolidine-2-carboxamide] (X1-VPGL-NMe2) |
| 36 nM | 435 nM | > 10 fold | Cc1ccc(Nc2ncc3c(n2)N(C)C(=O)N(c2cc(C(=O)N[C@H](C(=O)N4CCC[C@H]4C(=O)NC(C)(C)C(=O)N[C@@H](CC(C)C)C(=O)N(C)C)C4CCCCC4)ccc2C)C3)cn1 [7s, (S)-1-((S)-2-cyclohexyl-2-(4-methyl-3-(1-methyl-7-((6-methylpyridin-3-yl)amino)-2-oxo-1,4-dihydropyrimido[4,5-d]pyrimidin-3(2H)-yl)benzamido)acetyl)-N-(1-(((S)-1-(dimethylamino)-4-methyl-1-oxopentan-2-yl)amino)-2-methyl-1-oxopropan-2-yl)pyrrolidine-2-carboxamide] (X1-[Chg]P[Aib]L-NMe2) |
| 379 nM | 3970 nM |  | Cc1ccc(Nc2ncc3c(n2)N(C)C(=O)N(c2cc(C(=O)N[C@@H](C)C(=O)N4CCC[C@H]4C(=O)NC(C)(C)C(=O)N[C@H](C(=O)N(C)C)C(C)C)ccc2C)C3)cn1 [7m, (S)-N-(1-(((S)-1-(dimethylamino)-3-methyl-1-oxobutan-2-yl)amino)-2-methyl-1-oxopropan-2-yl)-1-((4-methyl-3-(1-methyl-7-((6-methylpyridin-3-yl)amino)-2-oxo-1,4-dihydropyrimido[4,5-d]pyrimidin-3(2H)-yl)benzoyl)-L-alanyl)pyrrolidine-2-carboxamide] (X1-AP[Aib]V-NMe2) |

| Structure (SMILES) | IC50 (Lck) | IC50 (c-Src) | selectivity for Lck over c-Src (Lck) |
| --- | --- | --- | --- |
| Cc1ccc(Nc2ncc3c(n2)N(C)C(=O)N(c2cc(NC(=O)c4ccc5c(c4)N(CC(=O)NCc4ccccc4)C(=O)[C@H](CC(C)C)N=C5c4ccccc4)ccc2C)C3)cn1 [11o, (S)-1-(2-(benzylamino)-2-oxoethyl)-3-isobutyl-N-(4-methyl-3-(1-methyl-7-((6-methylpyridin-3-yl)amino)-2-oxo-1,4-dihydropyrimido[4,5-d]pyrimidin-3(2H)-yl)phenyl)-2-oxo-5-phenyl-2,3-dihydro-1H-benzo[e][1,4]diazepine-8-carboxamide] | 27.8 nM | 87.5 nM |  |
| C=CCN1C(=O)[C@H](CC(C)C)N=C(c2ccccc2)c2ccc(C(=O)Nc3ccc(C)c(N4Cc5cnc(Nc6ccc(C)nc6)nc5N(C)C4=O)c3)cc21 [11i, (S)-1-allyl-3-isobutyl-N-(4-methyl-3-(1-methyl-7-((6-methylpyridin-3-yl)amino)-2-oxo-1,4-dihydropyrimido[4,5-d]pyrimidin-3(2H)-yl)phenyl)-2-oxo-5-phenyl-2,3-dihydro-1H-benzo[e][1,4]diazepine-8-carboxamide] | 49.3 nM | 222 nM |  |
| Cc1ccc(Nc2ncc3c(n2)N(C)C(=O)N(c2cc(NC(=O)c4ccc5c(c4)NC(=O)[C@H](Cc4ccc(F)cc4)N=C5c4ccccc4)ccc2C)C3)cn1 [11g, (S)-3-(4-fluorobenzyl)-N-(4-methyl-3-(1-methyl-7-((6-methylpyridin-3-yl)amino)-2-oxo-1,4-dihydropyrimido[4,5-d]pyrimidin-3(2H)-yl)phenyl)-2-oxo-5-phenyl-2,3-dihydro-1H-benzo[e][1,4]diazepine-8-carboxamide] | 42.1 nM | 134 nM |  |
| Cc1ccc(Nc2ncc3c(n2)N(C)C(=O)N(c2cc(NC(=O)c4ccc5c(c4)N(CC(C)C)C(=O)[C@H](CC(C)C)N=C5c4ccccc4)ccc2C)C3)cn1 [11j, (S)-1,3-diisobutyl-N-(4-methyl-3-(1-methyl-7-((6-methylpyridin-3-yl)amino)-2-oxo-1,4-dihydropyrimido[4,5-d]pyrimidin-3(2H)-yl)phenyl)-2-oxo-5-phenyl-2,3-dihydro-1H-benzo[e][1,4]diazepine-8-carboxamide] | 132 nM | 461 nM |  |
